Results reported in patent US20120142767A1, “PINE PCO ESTER COSMETIC COMPOSITION” (ACTION PIN, priority 2009, published 2012).
Several values for one entry are separate records, joined by “and”; a condition that tells them apart may be missing. Identical values can stand only once.

How the values were obtained:
[1] = test system: reconstructed human epidermis; assay: Cytotoxicity (MTT) on reconstructed human epidermis irradiated by UVBs; format: cell-based; settings: for AU (MTT): 3 epidermises and mean ± SD
Method: A human epidermis is reconstructed in vitro in culture inserts. A paper filter disc on which the substance to be tested (preventive treatment) is deposited on the “stratum corneum”. After 24 hours, it is irradiated by UVBs and then the substance to be tested (curative treatment) is again applied. a study of cytoxicity (MTT), The keratinocytes sites are sown at a density of 100×10^3 cells/cm^2 in inserts, the bottom of which consists of a polycarbonate membrane (porosity 0.4 μm-1 cm^2). […] 3 series of substance to be tested (5, 50 and 500 μg/mL) each consisting of 3 epidermises (to be irradiated). Next, the paper filter disks are carefully withdrawn and all the series are irradiated with UVBs (0.6 J/cm^2) (Spectroline model X-15N/F, λ=312 nm) except for the series corresponding to the absolute negative control and to the solvent control. The curative treatment is then applied as described above for the preventive treatment over a period of 24 hours, except for the positive control series 2 (indomethacin). The MTT test is carried out according to the conditions described in the publications: […]. and Berg K. Re-examination and further development of a precise and rapid dye method for measuring cell growth/cell kill. J. Immunol. Methods. 1989, 119, 203; and Mosmann T., Rapid colorimetric assay for cellular growth and survival: Application to proliferation and cytotoxic assays, J. Immunol. Methods. 1983, 65, 55-63. At the end of the selected incubation time, the Whatman paper disk is carefully picked up, the <<stratum corneum>> is rinsed and the porous membrane bearing the epidermal layer is detached from the insert with a bistoury. The culture medium are used for assaying IL-1α and MDA. […] For each layer, 200 μL of the obtained solution are pipeted into an 96 well plate for carrying out spectrometry with a plate reader (FL600-BIO-TEK) at λ=540 nm.

IL-1α = assay: Assay of IL-1α in the culture medium of UVB-irradiated reconstructed human epidermis; format: cell-based; settings: indomethacin 3 hours before irradiation, not statistically significant
Method: A human epidermis is reconstructed in vitro in culture inserts. A paper filter disc on which the substance to be tested (preventive treatment) is deposited on the “stratum corneum”. After 24 hours, it is irradiated by UVBs and then the substance to be tested (curative treatment) is again applied. an assay of IL-1α, a pro-inflammatory mediator in the culture medium, […] 3 series of substance to be tested (5, 50 and 500 μg/mL) each consisting of 3 epidermises (to be irradiated). Next, the paper filter disks are carefully withdrawn and all the series are irradiated with UVBs (0.6 J/cm^2) (Spectroline model X-15N/F, λ=312 nm) except for the series corresponding to the absolute negative control and to the solvent control. The curative treatment is then applied as described above for the preventive treatment over a period of 24 hours, except for the positive control series 2 (indomethacin). The assay of IL-1α is carried out in the sampled culture media (n=3), diluted to 1/10th and to 1/20th according to the procedure described in the assay kit.

normal human fibroblasts [2] = assay: Cytotoxic activity on a monolayer of human fibroblasts (MTT, 24 hours); settings: positive control (SDS), concentration not given
Method: After applying the product on the cells for 24 hours, cell viability is evaluated by measuring the activity of the mitochondrial succinate dehydrogenase of living cells. This enzyme transforms MTT (3(4,5-diméthylthiazol-2-yl)-2,5-diphenyltetrazolium bromide) into blue formazan crystals. After dissolution of these crystals, a spectrophotometric read-out is performed. The measured absorbancies are proportional to the number of living cells.
The cells used are fibroblast from human skin tissue (child foreskin) in passage 1.
Six dilutions of each sample, prepared in an culture medium with 0.005% of between 60 and 0.05% of cotton oil, are tested in an amount of 5 test wells per concentration. The reference elements are tested on 5 wells.
The absorbance is measured at 540 nm. The results are expressed as a mortality percentage compared with the negative control.

normal human fibroblasts [3] = assay: Synthesis of collagen by human fibroblasts (Sircol assay); format: cell-based; set-up: stimulation of collagen at the cell matrix: dose or concentration left out as unconfirmed
Method: The goal of this study is to evaluate the effect of the test element on the synthesis of collagen after 24-hour contact with a monolayer of normal human fibroblasts.
The cells used are fibroblasts from a human child skin tissue (child) on passage 2.
The cells are sown with 50,000 cells/cm^2. After 24 hours of culture, 37° C., 5% CO2, they are incubated with the product under investigation and the reference element for 24 hours in a 1% FCS medium.
The collagen is assayed in the extra cellular matrix and in the culture medium by means of the assay box Sircol, Biocolor Ltd, Ireland, according to the procedure described in the box.
The assay is carried out with the red colouring agent Sirius (Direct Red 80) which has specific affinity for the trip helix structure (Gly-X-Y)n of native collagen.
The absorbance of the dye-collagen complex is read out with the spectrophotometer at 540 nm.
A standard curve is produced between 0 and 50 μg/mL of collagen of type I.
The collagen concentration is expressed in pg of collagen /ml/U MTT in the extra cellular matrix and in the culture medium.

MDA (malonaldehyde) = assay: Assay of MDA (lipid peroxidation) in the culture medium of UVB-irradiated reconstructed human epidermis; format: cell-based; settings: for MDA / MDA (μM/AU MTT): vitamin E 200 μg/mL + UVB, 3 epidermises and mean ± SD
Method: A human epidermis is reconstructed in vitro in culture inserts. A paper filter disc on which the substance to be tested (preventive treatment) is deposited on the “stratum corneum”. After 24 hours, it is irradiated by UVBs and then the substance to be tested (curative treatment) is again applied. an assay of MDA (malonaldehyde) (a terminal product formed during the lipid peroxidation process induced by the formation of radical species, or species activated by oxygen). […] 3 series of substance to be tested (5, 50 and 500 μg/mL) each consisting of 3 epidermises (to be irradiated). Next, the paper filter disks are carefully withdrawn and all the series are irradiated with UVBs (0.6 J/cm^2) (Spectroline model X-15N/F, λ=312 nm) except for the series corresponding to the absolute negative control and to the solvent control. The curative treatment is then applied as described above for the preventive treatment over a period of 24 hours, except for the positive control series 2 (indomethacin). […] dilutions are carried out between 0.1 and 10 μM (0.1-1-2.5-5 and 10 μM). 500 μL of culture medium (or 500 μL of a standard range) are energetically mixed in a vortex mixer, with 1 mL of a <<TCA, TBA, HCl>> solution ([…] of TCA trichloroacetic acid, 0.375% (w/v) of TBA (2-thiobarbituric acid), 0.25 M of HCl) (heated for 15 minutes at 100° C. in order to dissolve the TBA, and then left to cool). The mixture is incubated for 15 minutes at 100° C. and the OD is measured at λ=535 nm against a blank formed with the <<TCA, TBA, HCl>> solution.

COc1ccc2c(c1)c(CC(=O)O)c(C)n2C(=O)c1ccc(Cl)cc1 [Indomethacin, indomethacin]
AU (MTT) ([1]; indomethacin 10 μg/mL, 3 hours before UVB): 0.214 AU and 0.288 AU and 0.232 AU | protective effect as regards cytotoxicity ([1]; indomethacin for 3 hours before irradiation): no protective effect | inhibition of synthesis and secretion of IL-1α in the culture medium (IL-1α): −20%

CCCCCCCCCCCCOS(=O)(=O)[O-].[Na+] [Positive control, SDS]
UA MTT (normal human fibroblasts [2]): 0.065 UA

TGF β1: positive control of the collagen synthesis test
stimulation of collagen at the cell matrix (normal human fibroblasts [3]; TGF β1): 88% | Assay of collagen, Cell matrix (normal human fibroblasts [3]; TGF β1 (100 ng/ml)): 9.74 μg/wells | Assay of collagen, Culture medium (normal human fibroblasts [3]; TGF β1 (100 ng/ml)): 11.36 μg/wells | Assay of collagen, TOTAL (normal human fibroblasts [3]; TGF β1 (100 ng/ml)): 21.09 μg/wells | Collagen ratio, Cell matrix (normal human fibroblasts [3]; TGF β1 (100 ng/ml)): 10.42 μg/wells/U MTT | Collagen ratio, Culture medium (normal human fibroblasts [3]; TGF β1 (100 ng/ml)): 12.15 μg/wells/U MTT | Collagen ratio, TOTAL (normal human fibroblasts [3]; TGF β1 (100 ng/ml)): 22.57 μg/wells/U MTT | Stimulation of collagen excreted into the culture medium (normal human fibroblasts [3]; TGF β1 (100 ng/ml)): 12% | Stimulation of collagen produced in the cell matrix (normal human fibroblasts [3]; TGF β1 (100 ng/ml)): 88% | Stimulation of the synthesis of total collagen (normal human fibroblasts [3]; TGF β1 (100 ng/ml)): 38% | stimulation of total synthesis of collagen (normal human fibroblasts [3]; TGF β1 at 10 μg/mL): 38%

vitamin E
cytotoxic effect [1]: 13% | AU (MTT) ([1]; vitamin E 200 μg/mL + UVB): 0.246 AU and 0.369 AU and 0.356 AU | MDA (MDA (malonaldehyde)): 0.422 µM and 0.423 µM and 0.484 µM | MDA (μM/AU MTT) (MDA (malonaldehyde)): 1.715 μM/AU MTT and 1.147 μM/AU MTT and 1.359 μM/AU MTT | MDA (MDA (malonaldehyde); mean ± SD of three epidermises): 0.443 ± 0.035 µM | MDA (μM/AU MTT) (MDA (malonaldehyde); mean ± SD of three epidermises): 1.407 ± 0.287 μM/AU MTT | increase in the MDA level (MDA (malonaldehyde); vitamin E before and after irradiation, with respect to the non-irradiated absolute negative control, P<0.05): 58%
